# Assay results as given in US7018796B2, “Preincubation assay methods” (Shionogi & Co., Ltd., priority 2000, dated 2006).
# Entries after “also recorded” stand apart in the source; their conditions may differ.
# Legend:
# [1] = molecular target: T1, HCV RNA-dependent RNA polymerase (Hepatitis C virus genotype 1a, UniProt P27958); assay: Prior assay method without pre-incubation, 3H-UTP (Reference 1); format: biochemical; details: no pre-incubation
# T1 construct: HCV RNA-dependent RNA polymerase is encoded in the NS5B (nonstructural protein 5B) region of HCV; made in house; host or cells: insect cells or E. coli
# Source text: A HCV RNA-dependent RNA polymerase, template RNA, primer RNA, substrate RNA, Mg ion (Mg^2+) and a test substance are mixed at the same time to start an enzyme reaction and measure an enzyme activity. It can be known whether a test substance activates or inhibits an activity of a HCV RNA-dependent RNA polymerase by comparing the above value of an enzyme activity with that measured in the absence of a test substance. IC50 value can be used, which is a concentration of a test substance able to inhibit 50% of an enzyme activity. For example, one of prior methods can be carried out in accordance with the later described Reference 1.
# A cDNA encoding HCV RNA-dependent RNA polymerase was made by use of HCV positive human plasma and HCV RNA-dependent RNA polymerase was expressed using the insect cells or the E. coli. HCV RNA-dependent RNA polymerase in the cell extract was purified by use of an anion exchange chromatography, a heparin affinity chromatography, a polyU affinity chromatography, a cation exchange chromatography and gel filtration chromatography. The purification was performed at 4° C. and Tris buffer (pH 7.5) containing ethylenediaminetetraacetic acid (1 mM), dithiothreitol (10 mM) and glycerol (20%) was used. The enzyme purified was stored at 4° C. until use for the assays.
# The prior assay method using HCV RNA-dependent RNA polymerase • 1) The buffer I ^1) (10.5 μl) containing Tris-HCl (100 mM, pH 7.5), MgCl2 (25 mM), dithiothreitol (5 mM), KCl (125 mM) and ethylenediaminetetraacetic acid (5 mM) was transferred to a polypropylene tube and then poly(A)^2) solution (100 μg/ml, 10.5 μl), oligo(U)12 ^3) solution (1 μg/ml, 10.5 μl) and water (8 μl) were added into the tube. After mixing, the tube was cooled on ice. • 2) Next, HCV RNA-dependent RNA polymerase (10.5 μl) cooled on ice was added into the tube and mixed. • 3) The mixture cooled (50 μl) was added to a test compound (5.26 μl/well) dissolved with dimethyl sulfoxide or water in a well of a 96-wells microtiter plate. • 4) Additionally, the buffer II (10.6 μl) containing Tris-HCl (100 mM, pH 7.5), MgCl2 (25 mM), dithiothreitol (5 mM), KCl (125 mM), ethylenediaminetetraacetic acid (5 mM) and UTP ^4) (2.1 μM, 1 μCi ^3H-UTP), was mixed with water (39.4 μl). The mixture (50 μl) was added into the well and mix, and then the enzyme reaction was performed at 25° C. for 30 min. • 5) After enzyme reaction for 30 min, the enzyme reaction was stopped by adding disodium ethylenediaminetetraacetic acid (50 mM, 50 μl). • 6) By use of the cell-harvester, all volume of the enzyme reaction sample which was described in 5) was transferred onto a DEAE-filtermat and washed twice for 10 see with sodium phosphate buffer (0.25 M, pH 7.0) and once for 10 sec with de-ionized water. • 7) The DEAE-filtermat was dried at 95° C. for 15 min and transferred into a sample bag with liquid scintillater (10 ml), and then a sample bag was sealed. • 8) The radio activity was measured by a scintillation counter. • 9) The inhibitory rate was calculated from the radioactivity measured (ccpm) as follows. [formula]
# [2] = molecular target: T1, HCV RNA-dependent RNA polymerase; assay: DIG-UTP assay without radioisotope-labeled substrate, without pre-incubation (Example 2); format: biochemical; details: no pre-incubation, I-1 0.5 μg/ml, 3′-dUTP 0.7 μM, A 100 μg/ml, B 50 μg/ml, C 25 μg/ml
# Protocol: After mixing by a plate mixer, the solution was pre-incubated at 25° C. for 1 hr. • 10) On the other hand, the buffer I (10 μl) was transferred into another tube, and UTP (1 μM, 10 μl), DIG-UTP (300 μM, 1 μl), water (24 μl) and a test compound dissolved with dimethyl sulfoxide or water (5 μl) were added to the tube and mixed calmly. Concentrations of the compounds used were as follows.
# • 11) The mixed solution (50 μl/well) described in 10) was transferred into each well after the pre-incubation described in 9), mixed by a plate mixer and then incubated at 25° C. for 1 hr. • 12) When the enzyme reaction was in 1 hr, the enzyme reaction was stopped by adding ethylenediaminetetraacetic acid (0.1 M, 50 μl/well). • 13) The plate was washed twice with PBS (200 μl/well) after end of the enzyme reaction. • 14) Next, alkaline phosphatase-labeled anti-DIG antibody (3 U/ml, 100 μl/well) diluted 250-fold with PBS containing skim milk (0.5%) was transferred each well. After mixing by a plate mixer, immuno-reaction was performed at 25° C. for 1 hr. • 15) Each well was washed twice with PBS (200 μl/well) containing skim milk (0.05%) and then washed twice with PBS (200 μl/well). • 16) Substrate solution (150 μl/well) for alkaline phosphatase was prepared by mixing of Tris-HCl (100 mM, pH 9.5), NaCl (100 mM), MgCl2 (5 mM) and p-nitrophenyl phosphate (6 mM) just before use. The substrate solution was transferred into each well of the plate, mixed by a plate mixer and then incubated at 25° C. for 1 hr until the color appears in the solution. • 17) The plate was set on a plate reader and the absorbance was measured at 405 nm. • 18) The inhibitory rate was calculated from the optical density (unit; OD) measured as follows. [formula]
# Table 4 summarized the comparison between inhibitory rates in the assay with the pre-incubation and those in the assay without the pre-incubation.
# [3] = prior method, I-1 0.5 μg/ml, 3′-dUTP 0.7 μM, A 100 μg/ml, B 50 μg/ml, C 25 μg/ml
# T1 sequence (P27958 2421-3011): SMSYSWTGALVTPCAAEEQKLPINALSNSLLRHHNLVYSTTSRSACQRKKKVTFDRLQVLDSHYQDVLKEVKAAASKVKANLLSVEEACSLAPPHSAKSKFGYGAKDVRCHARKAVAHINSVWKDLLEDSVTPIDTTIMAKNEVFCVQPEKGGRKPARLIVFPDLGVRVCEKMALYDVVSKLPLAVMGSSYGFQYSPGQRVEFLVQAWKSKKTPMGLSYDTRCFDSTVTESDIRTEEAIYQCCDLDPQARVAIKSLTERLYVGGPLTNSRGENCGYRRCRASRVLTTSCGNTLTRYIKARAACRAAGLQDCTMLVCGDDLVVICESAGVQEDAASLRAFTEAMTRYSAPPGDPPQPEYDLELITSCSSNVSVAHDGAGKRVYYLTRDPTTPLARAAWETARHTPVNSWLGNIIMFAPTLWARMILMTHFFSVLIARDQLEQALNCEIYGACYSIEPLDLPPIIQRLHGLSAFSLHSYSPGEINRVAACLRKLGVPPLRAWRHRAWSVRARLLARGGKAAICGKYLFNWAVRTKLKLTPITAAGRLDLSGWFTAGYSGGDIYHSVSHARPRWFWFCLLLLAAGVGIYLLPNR
SMILES,Judgement in the prior method (positive / negative) [1],"Inhibitory rate (Table 3) [1, 3]","Inhibitory rate, treatment of pre-incubation − [2]","inhibition at 0.5 µg/mL ([1]; prior method, I-1 0.5 μg/ml, 3′-dUTP 0.7 μM, A 100 μg/ml, B 50 μg/ml, C 25 μg/ml, read-out: Inhibitory rate (Table 3))","inhibition at 0.5 µg/mL ([2]; read-out: Inhibitory rate, treatment of pre-incubation −)"
O=C1NC(=O)C(=Cc2ccc(OCCc3cccc4ccccc34)cc2)C(=O)N1 [Compound B],positive data,63%,28%,–,–
Cc1oc(-c2ccccc2)nc1CCOc1ccc(C=C2C(=O)NC(=O)NC2=O)cc1 [Compound A],positive data,50%,87%,–,–
"O=c1ccn([C@@H]2O[C@H](COP(=O)(O)OP(=O)(O)OP(=O)(O)O)C[C@H]2O)c(=O)[nH]1 [3′-dUTP, 3′-deoxyuridine triphosphate]",–,68%,44%,–,–
O=C(O)/C(O)=C/C(=O)c1cccc(O)c1 [Compound I-1],–,–,–,62%,59%
CCCCC1=N/C(=C\c2ccccc2OCC(=O)O)C(=O)N1Cc1ccc(-c2ccccc2-c2nnn[nH]2)cc1 [Compound C],positive data; also recorded: positive result,67%,87%,–,–
